Experimental data as given in US20100298141A1, “SUBSTITUTED PYRIDINE N-OXIDE HERBICIDES” (E. I. DU PONT DE NEMOURS AND COMPANY, priority 2007, published 2010).

Key:
prickly sida = assay: Test F preemergence test; assay type: in vivo, Sida spinosa; conditions: scale 0 to 100
How it was run: (§1)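 Preemergence application to planted seeds, or postemergence to sugarcane plants; compound in non-phytotoxic solvent mix plus surfactant. Greenhouse, 14-21 days. Visual rating vs. controls.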

bermudagrass = assay: Test F preemergence test; assay type: in vivo, Cynodon dactylon; conditions: scale 0 to 100
How it was run: as §1

southern sandbur = assay: Test F preemergence test; assay type: in vivo, Cenchrus echinatus; conditions: scale 0 to 100
How it was run: as §1

johnsongrass = assay: Test F preemergence test; assay type: in vivo, Sorghum halepense; conditions: scale 0 to 100
How it was run: as §1

itchgrass = assay: Test F preemergence test; assay type: in vivo, Rottboellia cochinchinensis; conditions: scale 0 to 100
How it was run: as §1

naked crabgrass = assay: Test F preemergence test; assay type: in vivo, Digitaria nuda; conditions: scale 0 to 100
How it was run: as §1

goosegrass = assay: Test F preemergence test; assay type: in vivo, Eleusine indica; conditions: scale 0 to 100
How it was run: as §1

Surinam grass = assay: Test F preemergence test; assay type: in vivo, Brachiaria decumbens; conditions: scale 0 to 100
How it was run: as §1

Italian ryegrass = assay: Test F preemergence test; assay type: in vivo, Lolium multiflorum; conditions: scale 0 to 100
How it was run: as §1

common purslane = assay: Test F preemergence test; assay type: in vivo, Portulaca oleracea; conditions: scale 0 to 100
How it was run: as §1

Russian thistle = assay: Test C pre-/postemergence test; assay type: in vivo, Salsola kali
How it was run: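 Test chemicals were formulated with surfactant in a non-phytotoxic solvent and sprayed both on freshly planted seeds (preemergence) and on 1- to 4-leaf plants of 2–18 cm (postemergence). Flooded-paddy pots received compound directly into 3 cm of standing water, maintained for the test.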

common ragweed = assay: Test F preemergence test; assay type: in vivo, Ambrosia elation; conditions: scale 0 to 100
How it was run: as §1

broadleaf signalgrass = assay: Test F preemergence test; assay type: in vivo, Brachiaria platyphylla; conditions: scale 0 to 100
How it was run: as §1

pitted morningglory = assay: Test F preemergence test; assay type: in vivo, Ipomoea lacunosa; conditions: scale 0 to 100
How it was run: as §1

purple nutsedge = assay: Test F preemergence test; assay type: in vivo, Cyperus rotundus; conditions: scale 0 to 100
How it was run: as §1

guineagrass = assay: Test F preemergence test; assay type: in vivo, Panicum maximum; conditions: scale 0 to 100
How it was run: as §1

field bindweed = assay: Test F preemergence test; assay type: in vivo, Convolvulus arvensis; conditions: scale 0 to 100
How it was run: as §1

## Cn1nc(C(F)(F)F)c(C[S+]([O-])c2ccc(Cl)c[n+]2[O-])c1OCC(F)(F)F (racemic) [Compound 62]
Prickly sida; 16 g ai/ha, preemergence
  Plant response rating, Prickly Sida: 15
Prickly sida; 62 g ai/ha, Preemergence
  Prickly Sida plant response rating: 75
Prickly sida; 125 g ai/ha, preemergence
  Prickly Sida plant response rating: 95
Prickly sida; Preemergence, 31 g ai/ha
  Plant response rating, Prickly Sida: 65
bermudagrass; 16 g ai/ha, preemergence
  Plant response rating, Bermudagrass: 20
bermudagrass; 62 g ai/ha, Preemergence
  Bermudagrass plant response rating: 75
bermudagrass; 125 g ai/ha, preemergence
  Bermudagrass plant response rating: 100
bermudagrass; Preemergence, 31 g ai/ha
  Plant response rating, Bermudagrass: 20
Southern sandbur; 16 g ai/ha, preemergence
  Plant response rating, Sandbur: 25
Southern sandbur; 125 g ai/ha, preemergence
  Sandbur plant response rating: 98
Southern sandbur; Preemergence, 62 g ai/ha
  Plant response rating, Sandbur: 98
Southern sandbur; Preemergence, 31 g ai/ha
  Plant response rating, Sandbur: 75
johnsongrass; 16 g ai/ha, preemergence
  Plant response rating, Johnsongrass: 20
johnsongrass; 62 g ai/ha, Preemergence
  Johnsongrass plant response rating: 100
johnsongrass; 125 g ai/ha, preemergence
  Johnsongrass plant response rating: 100
johnsongrass; Preemergence, 31 g ai/ha
  Plant response rating, Johnsongrass: 80
itchgrass; 16 g ai/ha, preemergence
  Plant response rating, Itchgrass: 50
itchgrass; 62 g ai/ha, Preemergence
  Itchgrass plant response rating: 90
itchgrass; 125 g ai/ha, preemergence
  Itchgrass plant response rating: 98
itchgrass; Preemergence, 31 g ai/ha
  Plant response rating, Itchgrass: 75
Naked crabgrass; 16 g ai/ha, preemergence
  Plant response rating, Crabgrass, Naked: 90
Naked crabgrass; 62 g ai/ha, Preemergence
  Crabgrass, Naked plant response rating: 100
Naked crabgrass; 125 g ai/ha, preemergence
  Crabgrass, Naked plant response rating: 100
Naked crabgrass; Preemergence, 31 g ai/ha
  Plant response rating, Crabgrass, Naked: 90
goosegrass; 16 g ai/ha, preemergence
  Plant response rating, Goosegrass: 50
goosegrass; 62 g ai/ha, Preemergence
  Goosegrass plant response rating: 98
goosegrass; 125 g ai/ha, preemergence
  Goosegrass plant response rating: 100
goosegrass; Preemergence, 31 g ai/ha
  Plant response rating, Goosegrass: 65
Surinam grass; 16 g ai/ha, preemergence
  Plant response rating, Surinam Grass: 60
Surinam grass; 125 g ai/ha, preemergence
  Surinam Grass plant response rating: 100
Surinam grass; Preemergence, 62 g ai/ha
  Plant response rating, Surinam Grass: 100
Surinam grass; Preemergence, 31 g ai/ha
  Plant response rating, Surinam Grass: 95
Italian ryegrass; 16 g ai/ha, preemergence
  Plant response rating, Ryegrass, Italian: 50
Italian ryegrass; 125 g ai/ha, preemergence
  Ryegrass, Italian plant response rating: 100
Italian ryegrass; Preemergence, 62 g ai/ha
  Plant response rating, Ryegrass, Italian: 100
Italian ryegrass; Preemergence, 31 g ai/ha
  Plant response rating, Ryegrass, Italian: 98
Common purslane; 16 g ai/ha, preemergence
  Plant response rating, Purslane: 15
Common purslane; 62 g ai/ha, Preemergence
  Purslane plant response rating: 60
Common purslane; 125 g ai/ha, preemergence
  Purslane plant response rating: 75
Common purslane; Preemergence, 31 g ai/ha
  Plant response rating, Purslane: 40
Russian thistle; 62 g ai/ha, Preemergence, scale 0 to 100
  Russian Thistle plant response rating: 100
Russian thistle; 125 g ai/ha, preemergence, scale 0 (no effect) to 100 (complete control)
  Russian Thistle plant response rating: 100
Russian thistle; Preemergence, 31 g ai/ha, scale 0 to 100 (0 no effect, 100 complete control)
  Plant response rating, Russian Thistle: 100
Russian thistle; preemergence, 250 g ai/ha, scale 0 (no effect) to 100 (complete control)
  Russian Thistle plant response rating: 100
Common ragweed; 16 g ai/ha, preemergence
  Plant response rating, Ragweed: 60
Common ragweed; 125 g ai/ha, preemergence
  Ragweed plant response rating: 80
Common ragweed; Preemergence, 62 g ai/ha
  Plant response rating, Ragweed: 70
Common ragweed; Preemergence, 31 g ai/ha
  Plant response rating, Ragweed: 60
Broadleaf signalgrass; 16 g ai/ha, preemergence
  Plant response rating, Signalgrass: 40
Broadleaf signalgrass; 125 g ai/ha, preemergence
  Signalgrass plant response rating: 95
Broadleaf signalgrass; Preemergence, 62 g ai/ha
  Plant response rating, Signalgrass: 75
Broadleaf signalgrass; Preemergence, 31 g ai/ha
  Plant response rating, Signalgrass: 40
Pitted morningglory; 16 g ai/ha, preemergence
  Plant response rating, Morningglory: 0
Pitted morningglory; 62 g ai/ha, Preemergence
  Morningglory plant response rating: 75
Pitted morningglory; 125 g ai/ha, preemergence
  Morningglory plant response rating: 100
Pitted morningglory; Preemergence, 31 g ai/ha
  Plant response rating, Morningglory: 75
Purple nutsedge; 16 g ai/ha, preemergence
  Plant response rating, Purple Nutsedge: 0
Purple nutsedge; 62 g ai/ha, Preemergence
  Purple Nutsedge plant response rating: 65
Purple nutsedge; 125 g ai/ha, preemergence
  Purple Nutsedge plant response rating: 75
Purple nutsedge; Preemergence, 31 g ai/ha
  Plant response rating, Purple Nutsedge: 35
guineagrass; 16 g ai/ha, preemergence
  Plant response rating, Guineagrass: 70
guineagrass; 62 g ai/ha, Preemergence
  Guineagrass plant response rating: 100
guineagrass; 125 g ai/ha, preemergence
  Guineagrass plant response rating: 100
guineagrass; Preemergence, 31 g ai/ha
  Plant response rating, Guineagrass: 80
Field bindweed; 16 g ai/ha, preemergence
  Plant response rating, Field Bindweed: 0
Field bindweed; 62 g ai/ha, Preemergence
  Field Bindweed plant response rating: 75
Field bindweed; 125 g ai/ha, preemergence
  Field Bindweed plant response rating: 75
Field bindweed; Preemergence, 31 g ai/ha
  Plant response rating, Field Bindweed: 75

## Cn1nc(C(F)(F)F)c(C[S+]([O-])c2cccc[n+]2[O-])c1OC(F)F (stereo not drawn) [Compound 3]
Prickly sida; 8 g ai/ha, preemergence
  Plant response rating, Prickly Sida: 0
Prickly sida; 62 g ai/ha, Preemergence
  Prickly Sida plant response rating: 100
Prickly sida; Preemergence, 16 g ai/ha
  Plant response rating, Prickly Sida: 0
Prickly sida; Preemergence, 31 g ai/ha
  Plant response rating, Prickly Sida: 80
bermudagrass; 8 g ai/ha, preemergence
  Plant response rating, Bermudagrass: 0
bermudagrass; 62 g ai/ha, Preemergence
  Bermudagrass plant response rating: 85
bermudagrass; Preemergence, 16 g ai/ha
  Plant response rating, Bermudagrass: 0
bermudagrass; Preemergence, 31 g ai/ha
  Plant response rating, Bermudagrass: 65
Southern sandbur; 8 g ai/ha, preemergence
  Plant response rating, Sandbur: 20
Southern sandbur; 16 g ai/ha, preemergence
  Plant response rating, Sandbur: 65
Southern sandbur; 62 g ai/ha, Preemergence
  Sandbur plant response rating: 95
Southern sandbur; Preemergence, 31 g ai/ha
  Plant response rating, Sandbur: 90
johnsongrass; 8 g ai/ha, preemergence
  Plant response rating, Johnsongrass: 0
johnsongrass; 62 g ai/ha, Preemergence
  Johnsongrass plant response rating: 95
johnsongrass; Preemergence, 16 g ai/ha
  Plant response rating, Johnsongrass: 65
johnsongrass; Preemergence, 31 g ai/ha
  Plant response rating, Johnsongrass: 90
itchgrass; 8 g ai/ha, preemergence
  Plant response rating, Itchgrass: 0
itchgrass; 62 g ai/ha, Preemergence
  Itchgrass plant response rating: 90
itchgrass; Preemergence, 16 g ai/ha
  Plant response rating, Itchgrass: 35
itchgrass; Preemergence, 31 g ai/ha
  Plant response rating, Itchgrass: 70
Naked crabgrass; 8 g ai/ha, preemergence
  Plant response rating, Crabgrass, Naked: 20
Naked crabgrass; 62 g ai/ha, Preemergence
  Crabgrass, Naked plant response rating: 100
Naked crabgrass; Preemergence, 16 g ai/ha
  Plant response rating, Crabgrass, Naked: 80
Naked crabgrass; Preemergence, 31 g ai/ha
  Plant response rating, Crabgrass, Naked: 90
goosegrass; 8 g ai/ha, preemergence
  Plant response rating, Goosegrass: 0
goosegrass; 62 g ai/ha, Preemergence
  Goosegrass plant response rating: 98
goosegrass; Preemergence, 16 g ai/ha
  Plant response rating, Goosegrass: 40
goosegrass; Preemergence, 31 g ai/ha
  Plant response rating, Goosegrass: 95
Surinam grass; 8 g ai/ha, preemergence
  Plant response rating, Surinam Grass: 0
Surinam grass; 16 g ai/ha, preemergence
  Plant response rating, Surinam Grass: 0
Surinam grass; 62 g ai/ha, Preemergence
  Surinam Grass plant response rating: 95
Surinam grass; Preemergence, 31 g ai/ha
  Plant response rating, Surinam Grass: 85
Italian ryegrass; 8 g ai/ha, preemergence
  Plant response rating, Ryegrass, Italian: 0
Italian ryegrass; 62 g ai/ha, Preemergence
  Ryegrass, Italian plant response rating: 80
Italian ryegrass; Preemergence, 16 g ai/ha
  Plant response rating, Ryegrass, Italian: 30
Italian ryegrass; Preemergence, 31 g ai/ha
  Plant response rating, Ryegrass, Italian: 65
Common purslane; 8 g ai/ha, preemergence
  Plant response rating, Purslane: 0
Common purslane; 62 g ai/ha, Preemergence
  Purslane plant response rating: 100
Common purslane; Preemergence, 16 g ai/ha
  Plant response rating, Purslane: 0
Common purslane; Preemergence, 31 g ai/ha
  Plant response rating, Purslane: 60
Russian thistle; 31 g ai/ha, Preemergence, scale 0 to 100
  Russian Thistle plant response rating: 0
Common ragweed; 8 g ai/ha, preemergence
  Plant response rating, Ragweed: 0
Common ragweed; 62 g ai/ha, Preemergence
  Ragweed plant response rating: 90
Common ragweed; Preemergence, 16 g ai/ha
  Plant response rating, Ragweed: 60
Common ragweed; Preemergence, 31 g ai/ha
  Plant response rating, Ragweed: 80
Broadleaf signalgrass; 8 g ai/ha, preemergence
  Plant response rating, Signalgrass: 0
Broadleaf signalgrass; 16 g ai/ha, preemergence
  Plant response rating, Signalgrass: 0
Broadleaf signalgrass; 62 g ai/ha, Preemergence
  Signalgrass plant response rating: 75
Broadleaf signalgrass; Preemergence, 31 g ai/ha
  Plant response rating, Signalgrass: 75
Pitted morningglory; 8 g ai/ha, preemergence
  Plant response rating, Morningglory: 0
Pitted morningglory; 62 g ai/ha, Preemergence
  Morningglory plant response rating: 35
Pitted morningglory; Preemergence, 16 g ai/ha
  Plant response rating, Morningglory: 0
Purple nutsedge; 8 g ai/ha, preemergence
  Plant response rating, Purple Nutsedge: 0
Purple nutsedge; 62 g ai/ha, Preemergence
  Purple Nutsedge plant response rating: 80
Purple nutsedge; Preemergence, 16 g ai/ha
  Plant response rating, Purple Nutsedge: 60
Purple nutsedge; Preemergence, 31 g ai/ha
  Plant response rating, Purple Nutsedge: 75
guineagrass; 8 g ai/ha, preemergence
  Plant response rating, Guineagrass: 0
guineagrass; 62 g ai/ha, Preemergence
  Guineagrass plant response rating: 100
guineagrass; Preemergence, 16 g ai/ha
  Plant response rating, Guineagrass: 90
guineagrass; Preemergence, 31 g ai/ha
  Plant response rating, Guineagrass: 100
Field bindweed; 8 g ai/ha, preemergence
  Plant response rating, Field Bindweed: 0
Field bindweed; 62 g ai/ha, Preemergence
  Field Bindweed plant response rating: 25
Field bindweed; Preemergence, 16 g ai/ha
  Plant response rating, Field Bindweed: 0
Field bindweed; Preemergence, 31 g ai/ha
  Plant response rating, Field Bindweed: 25
